Test results published in PubChem BioAssay AID330 (DTP/NCI, 2004).
Several values for one entry are separate records, joined by “and”; a condition that tells them apart may be missing. Equal values may be shown once. Toxic doses and inconclusive results are not listed. The calls were made as follows: active = survival T/C of 150% or more; inactive = T/C below 125% in these data.

Test system: P388 leukemia ip, CD2F1 mice, survival T/C
Assay: NCI In Vivo Anticancer Drug Screen. Data for tumor model P388 Leukemia (intraperitoneal) in CD2F1 (CDF1) mice
Conditions: endpoint: median survival time, higher = longer survival
In short: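 Mice carrying the transplanted tumor received test compound or vehicle. Survival was recorded in each group, and the value is the treated-group measurement divided by that of the vehicle-treated control group.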

[1] = dose: 50.0 mg/kg/injection, schedule: Q01DX001 (ip), vehicle: Klucel (hydroxypropylcellulose) (HPC)
[2] = dose: 50.0 mg/kg/injection, schedule: Q01DX005 (ip), vehicle: saline with Tween-80
[3] = dose: 100.0 mg/kg/injection, schedule: Q01DX005 (ip), vehicle: saline with Tween-80
[4] = dose: 50.0 mg/kg/injection, schedule: Q01DX005 (ip), vehicle: Klucel (hydroxypropylcellulose) (HPC)
[5] = dose: 100.0 mg/kg/injection, schedule: Q01DX005 (ip), vehicle: Klucel (hydroxypropylcellulose) (HPC)
[6] = dose: 200.0 mg/kg/injection, schedule: Q01DX005 (ip), vehicle: Klucel (hydroxypropylcellulose) (HPC)
[7] = dose: 200.0 mg/kg/injection, schedule: Q01DX005 (ip), vehicle: saline with Tween-80
[8] = dose: 60.0 mg/kg/injection, schedule: Q01DX005 (ip), vehicle: saline
[9] = dose: 120.0 mg/kg/injection, schedule: Q01DX005 (ip), vehicle: saline
[10] = dose: 50.0 mg/kg/injection, schedule: Q01DX009 (ip), vehicle: saline with Tween-80
[11] = dose: 100.0 mg/kg/injection, schedule: Q01DX009 (ip), vehicle: saline with Tween-80
[12] = dose: 200.0 mg/kg/injection, schedule: Q01DX009 (ip), vehicle: saline with Tween-80

Measured: T/C

CCOP(=O)(O)OCc1ccccc1.[Ti]
inactive: [1] 90 % of control | dose: 100.0 mg/kg/injection, schedule: Q01DX001 (ip), vehicle: Klucel (hydroxypropylcellulose) (HPC) 97 % of control | dose: 200.0 mg/kg/injection, schedule: Q01DX001 (ip), vehicle: Klucel (hydroxypropylcellulose) (HPC) 93 % of control

CCCC1CCCCN1Cc1ccccc1 (stereo not given)
inactive: [2] 107 % of control | [3] 104 % of control

O=Nc1ccc2ccccc2c1O
inactive: dose: 12.5 mg/kg/injection, schedule: Q01DX001 (ip), vehicle: Klucel (hydroxypropylcellulose) (HPC) 103 % of control | dose: 25.0 mg/kg/injection, schedule: Q01DX001 (ip), vehicle: Klucel (hydroxypropylcellulose) (HPC) 108 % of control | [1] 111 % of control

c1ccc2c3c([nH]c2c1)CCc1cncnc1-3
inactive: [4] 91 % of control and 97 % of control | [5] 90 % of control and 103 % of control | [6] 99 % of control and 115 % of control

N#CCS(=O)(=O)c1cccc[n+]1[O-]
inactive: [2] 107 % of control and 115 % of control | [3] 118 % of control and 122 % of control | [7] 123 % of control

COc1cc2c(cc1C(C)c1ccc(OCC(=O)O)cc1)OCO2 (stereo not given)
inactive: dose: 50.0 mg/kg/injection, schedule: Q01DX005 (ip), vehicle: distilled water + Tween-80 96 % of control | dose: 100.0 mg/kg/injection, schedule: Q01DX005 (ip), vehicle: distilled water + Tween-80 105 % of control | dose: 200.0 mg/kg/injection, schedule: Q01DX005 (ip), vehicle: distilled water + Tween-80 100 % of control

O=C1C=C(Br)C(=O)c2c1[nH]c(=O)[nH]c2=O
inactive: dose: 8.0 mg/kg/injection, schedule: Q01DX005 (ip), vehicle: DMSO 117 % of control | dose: 16.0 mg/kg/injection, schedule: Q01DX005 (ip), vehicle: DMSO 107 % of control | dose: 32.0 mg/kg/injection, schedule: Q01DX005 (ip), vehicle: DMSO 95 % of control | dose: 64.0 mg/kg/injection, schedule: Q01DX005 (ip), vehicle: DMSO 107 % of control

C/C=C\C(/C=C/C)(C(=O)OCCN(C)C)C(/C=C\C)(/C=C/C)C(=O)OCCN(C)C (stereo not given)
inactive: [2] 100 % of control | [3] 100 % of control | [7] 91 % of control

O=c1nc2n(CCO)c3ccccc3cc-2c(=O)[nH]1
inactive: [8] 96 % of control | [9] 95 % of control

O=C1c2ccccc2C(=C2c3ccccc3C(=O)c3ccccc32)c2ccccc21
inactive: dose: 50.0 mg/kg/injection, schedule: Q01DX009 (ip), vehicle: Klucel (hydroxypropylcellulose) (HPC) 99 % of control | dose: 100.0 mg/kg/injection, schedule: Q01DX009 (ip), vehicle: Klucel (hydroxypropylcellulose) (HPC) 91 % of control | dose: 200.0 mg/kg/injection, schedule: Q01DX009 (ip), vehicle: Klucel (hydroxypropylcellulose) (HPC) 92 % of control | dose: 400.0 mg/kg/injection, schedule: Q01DX009 (ip), vehicle: Klucel (hydroxypropylcellulose) (HPC) 97 % of control

O=C1C(CCl)(CCl)CCC1(CCl)CCl
inactive: [2] 100 % of control | [3] 105 % of control | [7] 94 % of control

CN(C)Cc1c(N=Nc2cccc3c(N=Nc4[nH]c5ccccc5c4CN(C)C)cccc23)[nH]c2ccccc12
inactive: [10] 110 % of control | [11] 108 % of control | [12] 89 % of control

ICCCCCCCCCC[n+]1ccc2ccccc2c1
inactive: [2] 107 % of control

COC1=C/C(=C\N(O)C(C)(C)CO)C=CC1=O
inactive: [10] 99 % of control | [11] 91 % of control | [12] 91 % of control

COC(=O)CCSC(=O)Nc1ccc(C)cc1
inactive: [4] 101 % of control | [5] 100 % of control | [6] 105 % of control

Cc1cc(O)c2c(c1O)C(=O)c1cccc(O)c1C2=O
inactive: dose: 0.75 mg/kg/injection, schedule: Q01DX009 (ip), vehicle: Klucel (hydroxypropylcellulose) (HPC) 108 % of control | dose: 1.5 mg/kg/injection, schedule: Q01DX009 (ip), vehicle: Klucel (hydroxypropylcellulose) (HPC) 115 % of control | dose: 3.0 mg/kg/injection, schedule: Q01DX005 (ip), vehicle: Klucel (hydroxypropylcellulose) (HPC) 99 % of control | dose: 3.0 mg/kg/injection, schedule: Q01DX009 (ip), vehicle: Klucel (hydroxypropylcellulose) (HPC) 90 % of control | dose: 6.0 mg/kg/injection, schedule: Q01DX005 (ip), vehicle: Klucel (hydroxypropylcellulose) (HPC) 106 % of control | dose: 6.0 mg/kg/injection, schedule: Q01DX009 (ip), vehicle: Klucel (hydroxypropylcellulose) (HPC) 114 % of control | dose: 12.0 mg/kg/injection, schedule: Q01DX005 (ip), vehicle: Klucel (hydroxypropylcellulose) (HPC) 101 % of control | dose: 12.0 mg/kg/injection, schedule: Q01DX009 (ip), vehicle: Klucel (hydroxypropylcellulose) (HPC) 98 % of control | dose: 12.5 mg/kg/injection, schedule: Q01DX005 (ip), vehicle: Klucel (hydroxypropylcellulose) (HPC) 101 % of control | dose: 24.0 mg/kg/injection, schedule: Q01DX005 (ip), vehicle: Klucel (hydroxypropylcellulose) (HPC) 95 % of control | dose: 25.0 mg/kg/injection, schedule: Q01DX005 (ip), vehicle: Klucel (hydroxypropylcellulose) (HPC) 97 % of control | [4] 90 % of control | dose: 100.0 mg/kg/injection, schedule: Q01DX001 (ip), vehicle: saline 109 % of control | dose: 200.0 mg/kg/injection, schedule: Q01DX001 (ip), vehicle: saline 108 % of control | dose: 400.0 mg/kg/injection, schedule: Q01DX001 (ip), vehicle: saline 100 % of control

OCCN1CCOC(O)(c2cccc(C(F)(F)F)c2)C1 (stereo not given)
inactive: [2] 101 % of control | [3] 95 % of control | [7] 96 % of control

CN(C)N1C(=O)C(C(=O)Nc2cccc3ccccc23)SC1=S (stereo not given)
inactive: dose: 0.75 mg/kg/injection, schedule: Q01DX005 (ip), vehicle: saline with Tween-80 96 % of control | dose: 1.5 mg/kg/injection, schedule: Q01DX005 (ip), vehicle: saline with Tween-80 88 % of control | dose: 3.0 mg/kg/injection, schedule: Q01DX005 (ip), vehicle: saline with Tween-80 91 % of control | [3] 99 % of control | [7] 103 % of control

[Mn+2].[Mn+2].c1ccc2c(c1)-c1nc-2nc2[n-]c(nc3nc(nc4[n-]c(n1)c1ccccc41)-c1ccccc1-3)c1cc3c4nc5nc(nc6[n-]c(nc7nc(nc([n-]4)c3cc21)-c1ccccc1-7)c1ccccc61)-c1ccccc1-5
inactive: dose: 60.0 mg/kg/injection, schedule: Q01DX005 (ip), vehicle: saline with Tween-80 96 % of control | dose: 120.0 mg/kg/injection, schedule: Q01DX005 (ip), vehicle: saline with Tween-80 99 % of control | dose: 240.0 mg/kg/injection, schedule: Q01DX005 (ip), vehicle: saline with Tween-80 106 % of control

COc1ccc(C(CC(=O)O)CC(=O)c2ccc(N(CCCl)CCCl)cc2)cc1 (stereo not given)
inactive: dose: 100.0 mg/kg/injection, schedule: Q01DX001 (ip), vehicle: suspension in saline 98 % of control | dose: 200.0 mg/kg/injection, schedule: Q01DX001 (ip), vehicle: suspension in saline 99 % of control

CNC(=O)c1ccccc1C(O)c1ccc(C)cc1 (stereo not given)
inactive: [10] 105 % of control | [11] 99 % of control | [12] 99 % of control

CCCCCCCCCCCCCCCOc1cc(OC)ccc1-c1nnc(SC)s1
inactive: dose: 50.0 mg/kg/injection, schedule: Q01DX009 (ip), vehicle: saline 100 % of control | dose: 100.0 mg/kg/injection, schedule: Q01DX009 (ip), vehicle: saline 91 % of control | dose: 200.0 mg/kg/injection, schedule: Q01DX009 (ip), vehicle: saline 100 % of control

Cc1ccc(CC(=O)O)c2c1C(=O)CC2
inactive: dose: 12.5 mg/kg/injection, schedule: Q01DX009 (ip), vehicle: distilled water + Tween-80 92 % of control | dose: 25.0 mg/kg/injection, schedule: Q01DX009 (ip), vehicle: distilled water + Tween-80 90 % of control | dose: 50.0 mg/kg/injection, schedule: Q01DX009 (ip), vehicle: distilled water + Tween-80 90 % of control | dose: 100.0 mg/kg/injection, schedule: Q01DX009 (ip), vehicle: distilled water + Tween-80 90 % of control | dose: 200.0 mg/kg/injection, schedule: Q01DX009 (ip), vehicle: distilled water + Tween-80 90 % of control

COc1cc2ccc(CC(N)=O)cc2cc1OC
inactive: [11] 118 % of control | [12] 109 % of control

Cc1csc(=S)n1O
inactive: [8] 101 % of control | [9] 100 % of control | dose: 240.0 mg/kg/injection, schedule: Q01DX005 (ip), vehicle: saline 101 % of control

Cn1nc(C#N)c(=O)[nH]c1=O
inactive: dose: 12.5 mg/kg/injection, schedule: Q01DX005 (ip), vehicle: saline with Tween-80 99 % of control | dose: 25.0 mg/kg/injection, schedule: Q01DX005 (ip), vehicle: saline with Tween-80 97 % of control | [2] 99 % of control and 100 % of control
